Source: ChEMBL document CHEMBL1201862, “PubChem BioAssay data set” (2004)
The source made the active and inactive calls. No stated cut-off is given here; in the data, actives have a measured IC50 and inactives only a lower limit.

Molecular target: Envelope glycoprotein gp160 (Human immunodeficiency virus 1, UniProt Q6QLK5)
Experiment: inhibitors of HIV fusion peptide binding, primary screen, biochemical, uHTS, fluorescence dequenching (AID 1986)

Envelope glycoprotein gp160, sequence (Q6QLK5 whole entry, the tested form may be a part): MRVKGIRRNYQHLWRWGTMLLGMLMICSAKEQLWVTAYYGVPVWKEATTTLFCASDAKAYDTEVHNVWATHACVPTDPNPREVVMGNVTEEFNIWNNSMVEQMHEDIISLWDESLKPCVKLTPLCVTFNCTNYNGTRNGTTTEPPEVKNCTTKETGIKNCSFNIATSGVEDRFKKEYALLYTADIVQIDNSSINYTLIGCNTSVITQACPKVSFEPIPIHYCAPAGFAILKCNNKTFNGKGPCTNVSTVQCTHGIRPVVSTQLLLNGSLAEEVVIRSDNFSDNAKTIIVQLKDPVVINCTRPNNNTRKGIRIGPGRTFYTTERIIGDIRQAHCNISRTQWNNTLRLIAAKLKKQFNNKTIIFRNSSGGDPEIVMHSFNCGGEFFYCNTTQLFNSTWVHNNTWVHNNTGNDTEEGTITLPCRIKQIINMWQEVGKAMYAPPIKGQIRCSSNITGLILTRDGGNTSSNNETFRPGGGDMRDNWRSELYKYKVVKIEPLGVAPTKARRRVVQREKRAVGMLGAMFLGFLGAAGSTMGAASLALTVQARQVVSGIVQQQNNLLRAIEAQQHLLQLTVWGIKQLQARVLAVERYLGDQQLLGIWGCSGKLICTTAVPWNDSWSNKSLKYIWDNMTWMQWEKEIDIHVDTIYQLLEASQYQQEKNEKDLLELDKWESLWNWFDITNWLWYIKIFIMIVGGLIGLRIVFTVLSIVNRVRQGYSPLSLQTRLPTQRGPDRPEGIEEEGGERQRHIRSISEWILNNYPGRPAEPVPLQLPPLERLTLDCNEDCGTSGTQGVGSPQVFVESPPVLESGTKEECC

Row | Structure (SMILES) | IC50
1 | O=C(O)CSc1ncnc2c1sc1nc(-c3ccccc3)c3c(c12)CCC3 | 28 µM (active)
2 | O=C(O)COc1ccc(/C=C/C(=O)c2ccc(C3CCCCC3)cc2)cc1 | 17.7 µM (active)
3 | CS(=O)(=O)C1=NSC2=NC(=O)/C(=C\c3ccc(OS(=O)(=O)c4ccccc4)cc3)C(=N)N21 | 18.2 µM (active)
4 | COc1cc(/C=C2/SC(=S)N(CC(=O)O)C2=O)ccc1OCC(=O)Nc1ccc(C)c(C)c1 | 17.9 µM (active)
5 | COc1ccc(/N=C2\S/C(=C\c3ccc(OC(C)C(=O)O)c(OC)c3)C(=O)N2CCc2c[nH]c3ccccc23)cc1 (stereo not given) | 18.9 µM (active)
